The values below come from PubChem BioAssay (NCI).

Some test systems named below: HOP-92 NSCLC; OVCAR-4 ovarian; RXF 393 renal; SNB-19 CNS; TK-10 renal; UACC-257 melanoma; HS 578T breast; MCF7 breast; BT-549 breast; DU-145 prostate.
Assay in all cases: inhibition of tumour cell growth, NCI panel, 48 h

Several values for one entry are separate records, joined by “and”; a condition that tells them apart may be missing. Equal entries are not always repeated.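 Dose response: 5 concentrations. Exposure: 48 h. Format: 96-well plates. Endpoint: linear interpolation; highest concentration if not reached. GI50 = concentration required for 50% inhibition of growth. TGI is the concentration that stops growth completely.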

On to `Cc1nn2c(nc1=O)sc1ccc3ccccc3c12`, for which the TGI in the assay with HOP-92 NSCLC, with OVCAR-4 ovarian, in the assay on RXF 393 renal, with SNB-19 CNS, in the assay on TK-10 renal and with UACC-257 melanoma was above 100 µM throughout.

For the molecule `C(=N\Nc1ccccc1)/c1nc2ccccc2nc1/C=N/Nc1ccccc1`, the TGI amounted to 33.2 µM in the assay on HOP-92 NSCLC; 48.4 µM in the assay on OVCAR-4 ovarian; 30.1 µM with RXF 393 renal; 35.4 µM in the assay with SNB-19 CNS; 31.6 µM in the assay on TK-10 renal; 58.2 µM in the assay on UACC-257 melanoma.

`COc1ccc(Cn2cc3c(c2-c2ccccc2)CCc2cnoc2-3)cc1OC`: the GI50 with HOP-92 NSCLC was 1.98 µM; with HS 578T breast it was 0.564 µM; in the assay with MCF7 breast it was 0.574 µM; with OVCAR-4 ovarian it was 3.56 µM; in the assay with RXF 393 renal, 1.68 µM; in the assay on SNB-19 CNS, 2.79 µM. Besides, the GI50 with TK-10 renal is 2.3 µM; with UACC-257 melanoma it was 60.4 µM. The TGI in the assay on HOP-92 NSCLC is above 100 µM; with HS 578T breast, 6.94 µM; with MCF7 breast it was above 100 µM; in the assay on OVCAR-4 ovarian, above 100 µM; in the assay with RXF 393 renal it was above 100 µM; with SNB-19 CNS, above 100 µM. For the same molecule, the TGI with TK-10 renal and in the assay with UACC-257 melanoma was above 100 µM throughout.

With `N#CCCCCCOCCOCCOCCOCCOCCCCCC#N`, the TGI in the assay on OVCAR-4 ovarian, with RXF 393 renal, with SNB-19 CNS, in the assay on TK-10 renal and in the assay on UACC-257 melanoma was above 100 µM each time.

In the case of `CCNC(=O)Nc1ccc(Oc2ccnc3ccc4c(ccn4C)c23)cc1`, the GI50 was 56.3 µM in the assay with BT-549 breast; above 100 µM in the assay on DU-145 prostate; 45.5 µM in the assay on HOP-92 NSCLC; 37.9 µM in the assay with MCF7 breast; 54.2 µM with OVCAR-4 ovarian; 17.9 µM with RXF 393 renal. Besides, the GI50 in the assay with SNB-19 CNS is 40.1 µM; with TK-10 renal, 33.5 µM; in the assay with UACC-257 melanoma, 28.4 µM. The TGI in the assay on BT-549 breast, in the assay with DU-145 prostate, in the assay on HOP-92 NSCLC, with MCF7 breast, in the assay with OVCAR-4 ovarian and with RXF 393 renal was above 100 µM each time. Further, the TGI is above 100 µM with SNB-19 CNS, 99.3 µM with TK-10 renal and 86.2 µM in the assay on UACC-257 melanoma.

For the molecule `O=C(NCc1cccnc1)C1COc2cc(-c3cc(=O)c4ccccc4o3)ccc2O1` (stereo not given), the TGI in the assay with HOP-92 NSCLC was above 100 µM; in the assay on OVCAR-4 ovarian, above 100 µM; with RXF 393 renal it was above 61.2 µM; with SNB-19 CNS, above 67.2 µM; with TK-10 renal, above 83.4 µM; with UACC-257 melanoma, above 100 µM.

Regarding `COc1ccc(NC(=O)CC/C(CC(=O)c2ccco2)=N/NC(N)=S)cc1`, the TGI with HOP-92 NSCLC, with OVCAR-4 ovarian, in the assay on SNB-19 CNS, with TK-10 renal and with UACC-257 melanoma was above 100 µM throughout.

`CC1(Br)CC2OC3(Br)C=CC(C)(O)C2(CC1=O)C3(C)C` (stereo not given): the TGI in the assay with HOP-92 NSCLC, in the assay on OVCAR-4 ovarian, in the assay on SNB-19 CNS, in the assay on TK-10 renal and in the assay with UACC-257 melanoma was above 100 µM throughout.

For the molecule `CC[C@@]1(O)C(=O)OCc2c1cc1n(c2=O)Cc2cc3cccc([N+](=O)[O-])c3nc2-1`, the GI50 was 8.45 µM with HOP-92 NSCLC; 4.04 µM with OVCAR-4 ovarian; 1.83 µM in the assay on RXF 393 renal; 0.877 µM with SNB-19 CNS; 21 µM with TK-10 renal; 2.81 µM in the assay on UACC-257 melanoma. In addition, the TGI is 50.8 µM in the assay with HOP-92 NSCLC; 24.3 µM in the assay on OVCAR-4 ovarian; 7.18 µM in the assay on RXF 393 renal; 31.4 µM in the assay with SNB-19 CNS; above 100 µM in the assay with TK-10 renal; 36.9 µM in the assay on UACC-257 melanoma.

Turning to `CCOC(=O)NC/C=C/COC1CCCCO1` (stereo not given), the TGI with OVCAR-4 ovarian, in the assay with RXF 393 renal, in the assay with SNB-19 CNS, with TK-10 renal and with UACC-257 melanoma was above 100 µM in each case.

Take `Cc1cc(C)n(-c2ccnc3cc(Cl)ccc23)n1`: the TGI with HOP-92 NSCLC, with OVCAR-4 ovarian, in the assay on RXF 393 renal, in the assay with SNB-19 CNS, with TK-10 renal and with UACC-257 melanoma was above 100 µM in each case.

For the molecule `CCCCNC(=O)C1C(=O)N(CCCC)C(=O)/C1=N\N` (stereo not given), the TGI in the assay on HOP-92 NSCLC, in the assay on OVCAR-4 ovarian, in the assay on RXF 393 renal, in the assay on SNB-19 CNS, in the assay with TK-10 renal and in the assay with UACC-257 melanoma was above 100 µM in each case.

Turning to `Nc1nc(Cl)cc(NCC(O)CO)n1` (stereo not given), the TGI in the assay on HOP-92 NSCLC, in the assay with OVCAR-4 ovarian, in the assay on RXF 393 renal, in the assay with SNB-19 CNS, in the assay with TK-10 renal and with UACC-257 melanoma was above 100 µM each time.

Turning to `COc1ccc(Sc2nc3cc(N)cc(N)c3nc2-c2ccccc2)cc1`, the GI50 with DU-145 prostate is 14.5 µM; with HS 578T breast, above 100 µM; in the assay with MCF7 breast, 16.5 µM; with RXF 393 renal, above 100 µM; with SNB-19 CNS, above 100 µM; in the assay with TK-10 renal, 30.6 µM. Also, in the assay on UACC-257 melanoma, the GI50 is 43.2 µM. In addition, the TGI in the assay on DU-145 prostate, with HS 578T breast, in the assay on MCF7 breast, in the assay on RXF 393 renal, in the assay with SNB-19 CNS and with TK-10 renal was above 100 µM each time. The TGI in the assay on UACC-257 melanoma is above 100 µM.

For the molecule `O=C1NC2C(=CC(O)C(O)C2O)c2cc3c(cc21)OCO3` (stereo not given), the TGI with DU-145 prostate is 1.83 µM; with HS 578T breast, 0.55 µM; in the assay with MCF7 breast, 0.854 µM and 4.46 µM; with RXF 393 renal, 0.805 µM and 1.43 µM and 2.16 µM; in the assay with SNB-19 CNS, 0.832 µM and 2.12 µM; in the assay with TK-10 renal it was 4.11 µM. Besides, the TGI in the assay with UACC-257 melanoma was 2.83 µM and 2.86 µM. The GI50 in the assay with HOP-92 NSCLC was 0.116 µM and 0.171 µM; in the assay with MCF7 breast, 0.0495 µM; in the assay on OVCAR-4 ovarian, 0.159 µM and 0.422 µM; in the assay on RXF 393 renal, 0.589 µM; with SNB-19 CNS it was 0.296 µM and 0.111 µM; in the assay on TK-10 renal it was 0.917 µM. In the assay on UACC-257 melanoma, the GI50 is 0.47 µM and 0.304 µM.

As to `CC(N)(/C=C/c1ccccc1)C(=O)O` (stereo not given), the TGI in the assay on BT-549 breast, in the assay on HOP-92 NSCLC, in the assay on HS 578T breast, with MCF7 breast, with OVCAR-4 ovarian and in the assay with SNB-19 CNS was above 100 µM each time. Besides, the TGI in the assay with TK-10 renal and in the assay with UACC-257 melanoma was above 100 µM throughout.

With `O=c1c2ccccc2nc(/C=C(\O)c2ccncc2)n1-c1ccc(Cl)cc1`, the TGI in the assay on HOP-92 NSCLC, in the assay on OVCAR-4 ovarian, in the assay on SNB-19 CNS, with TK-10 renal and with UACC-257 melanoma was above 100 µM in each case.

For the molecule `Cc1cc(Nc2ncc3c(n2)N(C)C(=O)N(c2cc(NC(=O)c4cccc(C(F)(F)F)c4)ccc2C)C3)n(C)n1`, the GI50 in the assay on BT-549 breast was 0.0628 µM; with HS 578T breast, 0.0353 µM; in the assay with MCF7 breast, 0.624 µM; in the assay on RXF 393 renal, 0.021 µM; in the assay on SNB-19 CNS, 0.234 µM; with UACC-257 melanoma, 0.0197 µM. Also, the TGI in the assay with BT-549 breast was 0.321 µM; in the assay with HS 578T breast it was 0.206 µM; with MCF7 breast, above 46.4 µM; in the assay on RXF 393 renal, 0.171 µM; in the assay with SNB-19 CNS, above 46.4 µM; in the assay on UACC-257 melanoma, 0.125 µM.

With `O=C(OC1CCC2OOC1O2)c1ccc([N+](=O)[O-])cc1` (stereo not given), the TGI in the assay with OVCAR-4 ovarian, in the assay with RXF 393 renal, in the assay with SNB-19 CNS, in the assay with TK-10 renal and in the assay on UACC-257 melanoma was above 100 µM each time.

On to `COc1ccc2cc(C(=O)/C=C/c3ccc(N(C)C)cc3)ccc2c1`, for which the GI50 in the assay on BT-549 breast was 39.5 µM; in the assay with DU-145 prostate, above 100 µM; with HOP-92 NSCLC it was above 100 µM; in the assay on MCF7 breast, 83 µM; in the assay with OVCAR-4 ovarian, 81.7 µM; in the assay with RXF 393 renal, 41.4 µM. Further, the results for the GI50 in the assay on SNB-19 CNS, in the assay with TK-10 renal and in the assay with UACC-257 melanoma were above 100 µM, 43.9 µM and 36.7 µM, respectively. Besides, the TGI in the assay with BT-549 breast, with DU-145 prostate, in the assay with HOP-92 NSCLC, in the assay on MCF7 breast, in the assay on OVCAR-4 ovarian and in the assay on RXF 393 renal was above 100 µM throughout. Further, the TGI with SNB-19 CNS, in the assay with TK-10 renal and with UACC-257 melanoma was above 100 µM each time.

As for `CCOC(=O)C(N=C(c1ccccc1)c1ccccc1)N(C(=O)OC(C)(C)C)C(=O)OC(C)(C)C` (stereo not given), the TGI in the assay on HOP-92 NSCLC is 66.6 µM; in the assay with OVCAR-4 ovarian it was above 100 µM; in the assay on RXF 393 renal, above 100 µM; in the assay on SNB-19 CNS, above 100 µM; with TK-10 renal, above 100 µM; with UACC-257 melanoma it was above 100 µM.

In the case of `CCCNCC(=O)O[C@]1(CC)C(=O)OCc2c1cc1n(c2=O)Cc2cc3ccccc3nc2-1`, the TGI was 3.6 µM in the assay with HOP-92 NSCLC; 3.99 µM in the assay with OVCAR-4 ovarian; 0.39 µM with RXF 393 renal; above 100 µM in the assay with SNB-19 CNS; above 100 µM with TK-10 renal; 1.88 µM in the assay on UACC-257 melanoma.

As for `CCC(O)C1Cc2c(C)cc3c(c2O1)C(=O)c1ccccc1C3=O` (stereo not given), the TGI was 97.1 µM in the assay on HOP-92 NSCLC; above 100 µM in the assay on OVCAR-4 ovarian; above 100 µM with SNB-19 CNS; above 100 µM in the assay with TK-10 renal; above 100 µM in the assay with UACC-257 melanoma.
